Experimental data taken from PubChem BioAssay (NCI).
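Cultured in 96-well plates, cells were exposed to test compound for 48 hours across five concentrations. GI50 = concentration required for 50% inhibition of growth. TGI denotes the concentration required for complete inhibition of growth.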

What was measured:
Experiment in all cases: NCI anticancer screen, dose series, 48 h
[1] = system: UACC-62 melanoma
[2] = system: MDA-MB-435
[3] = system: UO-31 renal
[4] = system: TK-10 renal
[5] = system: MALME-3M melanoma
[6] = system: A549 NSCLC
[7] = system: PC-3 prostate
[8] = system: HS 578T breast
[9] = system: OVCAR-3 ovarian
[10] = system: KM12 colon

For `Cc1cn2c(/C=N/N=C(N)N)c(-c3cccnc3)nc2s1`, the GI50 [1] was 11 µM, the TGI [1] was 23.6 µM and the GI50 [2] was 2.4 µM. For the same compound, the TGI [2] was 7.15 µM, the GI50 [3] was 6.1 µM and the TGI [3] was 21.4 µM. It also gave a GI50 [4] of 6.85 µM, a TGI [4] of 21.3 µM and a GI50 [5] of 8.14 µM. The TGI [5] was 21.4 µM, the GI50 [6] was 16.3 µM and the TGI [6] was 56.1 µM. It also gave a GI50 [7] of 6.95 µM, a TGI [7] of 24.7 µM and a GI50 [8] of 23.5 µM. For the same compound, the TGI [8] was 47.1 µM, the GI50 [9] was 10.3 µM and the TGI [9] was 22.9 µM. It also gave a GI50 [10] of 1.58 µM and a TGI [10] of 7.21 µM.

Compound `CCOC(=O)/C(=C(/C)NCC(C)C)c1cc(O)c(O)c2c(C)cc(=O)[nH]c12` has a GI50 [1] of 7.12 µM, a TGI [1] greater than 100 µM and a GI50 [2] of 5.93 µM. It also gave a TGI [2] greater than 100 µM, a GI50 [3] of 46.1 µM and a TGI [3] greater than 100 µM. The GI50 [4] was 9.18 µM, the TGI [4] was 68.3 µM and the GI50 [5] was 11.4 µM. The TGI [5] was 70.8 µM, the GI50 [6] was 7.8 µM and the TGI [6] was greater than 100 µM. It also gave a GI50 [7] of 11.1 µM, a TGI [7] greater than 100 µM and a GI50 [8] of 13.4 µM. The TGI [8] was 57.3 µM, the GI50 [9] was 3.16 µM and the TGI [9] was greater than 100 µM. The GI50 [10] was 12.4 µM and the TGI [10] was greater than 100 µM.

`COc1ccc2c(c1OC)OCC(CN(C)C)C2=O` (stereo unspecified) showed a TGI [1] of 32.1 µM, a TGI [2] of 34.3 µM and a TGI [3] of 32.5 µM. For the same compound, the TGI [4] was 34.4 µM, the TGI [5] was 34.8 µM and the TGI [6] was greater than 63.9 µM. For the same compound, the TGI [7] was 34.6 µM, the TGI [8] was greater than 87.4 µM and the TGI [9] was 48.5 µM. The TGI [10] was 33.9 µM.

For `O=C(NCc1ccco1)c1ccc(NC2=C(Cl)C(=O)N(Cc3ccccc3)C2=O)cc1`, the GI50 [1] was 16.7 µM, the TGI [1] was 36.7 µM and the GI50 [2] was 16.3 µM. The TGI [2] was 37.6 µM, the GI50 [3] was 22.2 µM and the TGI [3] was 57.7 µM. The GI50 [4] was 30.7 µM, the TGI [4] was 76.7 µM and the GI50 [6] was 37.2 µM. The TGI [6] was greater than 100 µM, the GI50 [7] was 17.5 µM and the TGI [7] was 32.5 µM. The GI50 [8] was 43.3 µM, the TGI [8] was greater than 100 µM and the GI50 [9] was 16.7 µM. The TGI [9] was 31.3 µM, the GI50 [10] was 17.2 µM and the TGI [10] was 36.2 µM.

`COc1ccc(-c2cc(-c3ccc(O)cc3)nc3n[nH]c(N)c23)cc1` showed a GI50 [1] of 17.2 µM, a TGI [1] of 34.5 µM and a GI50 [2] of 22 µM. For the same compound, the TGI [2] was 47.4 µM, the GI50 [3] was 10.4 µM and the TGI [3] was 28.2 µM. For the same compound, the GI50 [4] was 29.8 µM, the TGI [4] was greater than 100 µM and the GI50 [5] was 21 µM. It also gave a TGI [5] of 44 µM, a GI50 [6] of 26.8 µM and a TGI [6] greater than 100 µM. For the same compound, the GI50 [7] was 29.1 µM, the TGI [7] was greater than 100 µM and the GI50 [8] was 19.6 µM. For the same compound, the TGI [8] was 43.3 µM, the GI50 [9] was 13.5 µM and the TGI [9] was 31.7 µM. It also gave a GI50 [10] of 16.3 µM and a TGI [10] of 40.7 µM.

`CCN(CC)CCCC(C)N=c1cc(Nc2cc(=NC(C)CCCN(CC)CC)c3cc(OC)ccc3o2)oc2ccc(OC)cc12` (stereo unspecified) gave a GI50 [1] of 1.04 µM, a TGI [1] of 2.39 µM and a GI50 [2] of 0.871 µM. The TGI [2] was 1.68 µM, the GI50 [3] was 0.874 µM and the TGI [3] was 4.9 µM. It also gave a GI50 [4] of 1.3 µM, a TGI [4] of 3.22 µM and a GI50 [5] of 0.937 µM. The TGI [5] was 1.74 µM, the GI50 [6] was 0.849 µM and the TGI [6] was 1.87 µM. For the same compound, the GI50 [7] was 1.49 µM, the TGI [7] was 6.8 µM and the GI50 [8] was 3.33 µM. It also gave a TGI [8] of 14.8 µM, a GI50 [9] of 1.29 µM and a TGI [9] of 2.92 µM. For the same compound, the GI50 [10] was 1.62 µM and the TGI [10] was 5.63 µM.

`N#CS.N=C=S.N=C=S.[Cu+2].[NH2-].[NH2-].[NH2-].[NH2-].c1ccc2ncccc2c1` was tested, and the GI50 [1] was 19.4 µM, the TGI [1] was 37 µM and the GI50 [2] was 19.4 µM. For the same compound, the TGI [2] was 41.3 µM, the GI50 [3] was 60.7 µM and the TGI [3] was greater than 100 µM. The GI50 [4] was 90 µM, the TGI [4] was greater than 100 µM and the GI50 [5] was greater than 100 µM. For the same compound, the TGI [5] was greater than 100 µM, the GI50 [6] was 20.4 µM and the TGI [6] was 51.5 µM. It also gave a GI50 [7] greater than 100 µM, a TGI [7] greater than 100 µM and a GI50 [8] of 29.4 µM. The TGI [8] was greater than 100 µM, the GI50 [9] was 21.3 µM and the TGI [9] was 41.8 µM. The GI50 [10] was 31.5 µM and the TGI [10] was greater than 100 µM.

For `C=C1C(=O)O[C@@H]2C1C[C@@H](O)C(=C)CC/C=C(\C)CCC[C@H](C)[C@H]2OC(C)=O` (stereo partly specified), the GI50 [1] was 7.45 µM, the TGI [1] was 21.7 µM and the GI50 [2] was 12.9 µM. It also gave a TGI [2] of 26.7 µM, a GI50 [3] of 5.18 µM and a TGI [3] of 18.4 µM. It also gave a GI50 [4] of 2.11 µM, a TGI [4] of 5.57 µM and a GI50 [6] of 22.9 µM. The TGI [6] was 48.8 µM, the GI50 [7] was 6.1 µM and the TGI [7] was 22.9 µM. For the same compound, the GI50 [8] was 10.3 µM, the TGI [8] was 27.7 µM and the GI50 [9] was 3.38 µM. For the same compound, the TGI [9] was 12.6 µM, the GI50 [10] was 11.4 µM and the TGI [10] was 26 µM.

In the case of `O=C1OC(c2ccccc2)(c2cc(Br)c(O)c(Br)c2)c2ccccc21` (stereo unspecified), the GI50 [1] is reported as 15.6 µM, the TGI [1] is reported as 31.7 µM and the GI50 [2] is reported as 22.6 µM. The TGI [2] was 77.1 µM, the GI50 [3] was 15.6 µM and the TGI [3] was 42.3 µM. It also gave a GI50 [5] of 25.3 µM, a TGI [5] of 77.5 µM and a GI50 [6] of 31.3 µM. The TGI [6] was greater than 100 µM, the GI50 [7] was 35.6 µM and the TGI [7] was greater than 100 µM. The GI50 [8] was 18.5 µM, the TGI [8] was 57.3 µM and the GI50 [9] was 18.1 µM. The TGI [9] was 36.4 µM, the GI50 [10] was 21.9 µM and the TGI [10] was 60.5 µM.

`C=CN(C)S(C)(=O)=O` gave a GI50 [1] greater than 100 µM, a TGI [1] greater than 100 µM and a GI50 [2] greater than 100 µM. The TGI [2] was greater than 100 µM, the GI50 [3] was greater than 100 µM and the TGI [3] was greater than 100 µM. The GI50 [5] was greater than 100 µM, the TGI [5] was greater than 100 µM and the GI50 [6] was greater than 100 µM. For the same compound, the TGI [6] was greater than 100 µM, the GI50 [7] was greater than 100 µM and the TGI [7] was greater than 100 µM. The GI50 [8] was greater than 100 µM, the TGI [8] was greater than 100 µM and the GI50 [9] was greater than 100 µM. The TGI [9] was greater than 100 µM, the GI50 [10] was greater than 100 µM and the TGI [10] was greater than 100 µM.

For `C=C(CN1CCN(c2cccc(C(F)(F)F)n2)CC1)c1ccc(C(=S)Nc2ccccc2N)cc1`, the GI50 [1] was 2.28 µM, the TGI [1] was 6.89 µM and the GI50 [2] was 3.77 µM. It also gave a TGI [2] greater than 100 µM, a GI50 [3] of 4.14 µM and a TGI [3] greater than 100 µM. For the same compound, the GI50 [4] was 3.13 µM, the TGI [4] was greater than 100 µM and the GI50 [6] was 3.32 µM. The TGI [6] was greater than 100 µM, the GI50 [8] was 3.52 µM and the TGI [8] was greater than 100 µM. The GI50 [9] was 4.34 µM, the TGI [9] was greater than 100 µM and the GI50 [10] was 4.04 µM. The TGI [10] was greater than 100 µM.

In the case of `COc1ccc(OC)c(-c2cc(=O)c3c(OC)c(OC)c(OC)c(OC)c3o2)c1`, the TGI [1] is reported as 64.3 µM, the TGI [2] is reported as greater than 100 µM and the TGI [3] is reported as greater than 100 µM. It also gave a TGI [4] greater than 100 µM, a TGI [5] greater than 100 µM and a TGI [6] greater than 100 µM. It also gave a TGI [8] greater than 100 µM and a TGI [9] of 75.3 µM.

Work on `CCOc1ccccc1NC(=O)CCc1n[nH]c(=S)o1` yielded a TGI [1] greater than 100 µM, a TGI [3] greater than 100 µM and a TGI [4] greater than 100 µM. It also gave a TGI [5] greater than 100 µM, a TGI [6] greater than 100 µM and a TGI [9] greater than 100 µM. The TGI [10] was greater than 100 µM.

`Cc1nn(C)cc1P(=S)(c1ccccc1)c1ccccc1` showed a TGI [1] greater than 100 µM, a TGI [3] greater than 100 µM and a TGI [4] greater than 100 µM. For the same compound, the TGI [5] was greater than 100 µM, the TGI [6] was greater than 100 µM and the TGI [9] was greater than 100 µM. For the same compound, the TGI [10] was greater than 100 µM.

`C=C(C)[C@@H]1CC[C@]2(CO)CC[C@]3(C)[C@H](CC[C@@H]4[C@@]5(C)CCC(NCCc6ccc(O)cc6)C(C)(C)[C@@H]5CC[C@]43C)[C@@H]12` (stereo partly specified) showed a GI50 [1] of 1.63 µM, a TGI [1] of 3.09 µM and a GI50 [2] of 1.43 µM. For the same compound, the TGI [2] was 2.77 µM, the GI50 [3] was 1.32 µM and the TGI [3] was 2.69 µM. For the same compound, the GI50 [4] was 1.65 µM, the TGI [4] was 3.13 µM and the GI50 [6] was 1.48 µM. The TGI [6] was 3 µM, the GI50 [7] was 1.3 µM and the TGI [7] was 2.64 µM. The GI50 [9] was 1.69 µM, the TGI [9] was 3.21 µM and the GI50 [10] was 1.64 µM. It also gave a TGI [10] of 3.29 µM.
